Literature values in paper PMC12084609, “Structural insights into small-molecule agonist recognition and activation of complement receptor C3aR” (The EMBO Journal, 2025).

Tested on: C3aR
Design: method as in Mathieu et al, 2005; Rodriguez et al, 2024
Settings: blockade of calcium influx attributed to β-arrestin mediated internalization; ref Mathieu et al, 2005; Rodriguez et al, 2024; cited from earlier work

In the case of `NC(N)=NCCC[C@H](NC(=O)COCC(c1ccccc1)c1ccccc1)C(=O)O` [SB290157], the “activity at C3aR” value is given as “potent agonist”.
